Experimental data as given in US11572590B2, “Methods for evaluating tumor cell spheroids using 3D microfluidic cell culture device” (Dana-Farber Cancer Institute, Inc., priority 2017, dated 2023).
Like-named read-outs stand apart in the source and are kept apart here.

Key:
Assay in all cases: SelectScreen Kinase Profiling, single point inhibition and IC50 for off-target kinases
Format in all cases: biochemical
[1] = molecular target: T1, off-target kinases (Homo sapiens, UniProt P29320); conditions: EPHA3, LanthaScreen Binding
T1 sequence (P29320 21-983): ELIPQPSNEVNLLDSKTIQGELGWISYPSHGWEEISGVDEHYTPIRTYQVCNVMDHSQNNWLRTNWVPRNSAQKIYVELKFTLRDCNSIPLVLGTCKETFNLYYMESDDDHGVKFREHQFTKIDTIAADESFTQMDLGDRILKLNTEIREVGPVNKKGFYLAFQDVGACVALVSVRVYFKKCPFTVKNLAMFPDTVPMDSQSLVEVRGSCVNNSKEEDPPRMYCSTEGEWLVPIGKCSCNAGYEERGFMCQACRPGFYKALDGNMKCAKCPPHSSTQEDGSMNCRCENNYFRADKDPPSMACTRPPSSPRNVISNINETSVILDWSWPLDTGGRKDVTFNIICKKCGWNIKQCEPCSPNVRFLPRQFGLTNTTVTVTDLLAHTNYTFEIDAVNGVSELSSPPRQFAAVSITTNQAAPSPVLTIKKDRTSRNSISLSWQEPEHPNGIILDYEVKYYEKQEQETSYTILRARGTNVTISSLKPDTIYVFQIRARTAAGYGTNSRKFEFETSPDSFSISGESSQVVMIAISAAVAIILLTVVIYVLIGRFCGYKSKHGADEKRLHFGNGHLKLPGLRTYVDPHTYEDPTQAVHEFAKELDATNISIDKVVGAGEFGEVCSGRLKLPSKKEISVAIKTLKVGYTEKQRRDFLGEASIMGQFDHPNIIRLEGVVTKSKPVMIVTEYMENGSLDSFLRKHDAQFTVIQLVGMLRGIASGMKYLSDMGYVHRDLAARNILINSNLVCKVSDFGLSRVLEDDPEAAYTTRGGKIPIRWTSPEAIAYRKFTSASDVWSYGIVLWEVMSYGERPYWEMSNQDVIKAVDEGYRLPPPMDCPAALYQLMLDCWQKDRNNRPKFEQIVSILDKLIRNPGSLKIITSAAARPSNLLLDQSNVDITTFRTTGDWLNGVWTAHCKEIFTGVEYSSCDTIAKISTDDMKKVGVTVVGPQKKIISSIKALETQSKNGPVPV

[2] = molecular target: off-target kinases (Homo sapiens, UniProt P29376); conditions: LTK (TYK1), ZLYTE, ATP Km app
Chain of off-target kinases (Homo sapiens, UniProt P29376) (P29376 17-864): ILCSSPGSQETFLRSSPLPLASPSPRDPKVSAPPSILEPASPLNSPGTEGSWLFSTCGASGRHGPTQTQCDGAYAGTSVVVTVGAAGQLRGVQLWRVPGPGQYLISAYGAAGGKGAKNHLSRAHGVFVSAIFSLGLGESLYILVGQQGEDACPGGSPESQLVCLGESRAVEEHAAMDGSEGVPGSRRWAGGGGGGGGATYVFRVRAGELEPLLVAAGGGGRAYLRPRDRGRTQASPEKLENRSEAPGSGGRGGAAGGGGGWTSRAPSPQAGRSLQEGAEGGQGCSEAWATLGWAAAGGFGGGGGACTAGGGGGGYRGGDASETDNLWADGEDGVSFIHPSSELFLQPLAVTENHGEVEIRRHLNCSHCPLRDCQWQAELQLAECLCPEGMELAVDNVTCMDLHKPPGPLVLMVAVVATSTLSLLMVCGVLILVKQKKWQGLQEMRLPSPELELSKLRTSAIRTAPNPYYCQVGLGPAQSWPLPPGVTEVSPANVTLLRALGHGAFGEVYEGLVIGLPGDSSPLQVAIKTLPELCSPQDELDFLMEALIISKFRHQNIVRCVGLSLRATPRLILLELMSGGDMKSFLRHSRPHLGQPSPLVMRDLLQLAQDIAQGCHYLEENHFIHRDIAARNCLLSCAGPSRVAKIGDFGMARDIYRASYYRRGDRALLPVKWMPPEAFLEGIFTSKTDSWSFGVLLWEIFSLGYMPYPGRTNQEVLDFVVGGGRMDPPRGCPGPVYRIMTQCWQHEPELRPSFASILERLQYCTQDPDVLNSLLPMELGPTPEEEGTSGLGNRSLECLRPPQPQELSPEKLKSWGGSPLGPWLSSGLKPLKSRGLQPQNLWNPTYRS

[3] = molecular target: off-target kinases (Homo sapiens, UniProt P22607, G697C); conditions: FGFR3 G697C (mutant), LanthaScreen Binding
Chain of off-target kinases (Homo sapiens, UniProt P22607, G697C) (P22607 23-806 G697C): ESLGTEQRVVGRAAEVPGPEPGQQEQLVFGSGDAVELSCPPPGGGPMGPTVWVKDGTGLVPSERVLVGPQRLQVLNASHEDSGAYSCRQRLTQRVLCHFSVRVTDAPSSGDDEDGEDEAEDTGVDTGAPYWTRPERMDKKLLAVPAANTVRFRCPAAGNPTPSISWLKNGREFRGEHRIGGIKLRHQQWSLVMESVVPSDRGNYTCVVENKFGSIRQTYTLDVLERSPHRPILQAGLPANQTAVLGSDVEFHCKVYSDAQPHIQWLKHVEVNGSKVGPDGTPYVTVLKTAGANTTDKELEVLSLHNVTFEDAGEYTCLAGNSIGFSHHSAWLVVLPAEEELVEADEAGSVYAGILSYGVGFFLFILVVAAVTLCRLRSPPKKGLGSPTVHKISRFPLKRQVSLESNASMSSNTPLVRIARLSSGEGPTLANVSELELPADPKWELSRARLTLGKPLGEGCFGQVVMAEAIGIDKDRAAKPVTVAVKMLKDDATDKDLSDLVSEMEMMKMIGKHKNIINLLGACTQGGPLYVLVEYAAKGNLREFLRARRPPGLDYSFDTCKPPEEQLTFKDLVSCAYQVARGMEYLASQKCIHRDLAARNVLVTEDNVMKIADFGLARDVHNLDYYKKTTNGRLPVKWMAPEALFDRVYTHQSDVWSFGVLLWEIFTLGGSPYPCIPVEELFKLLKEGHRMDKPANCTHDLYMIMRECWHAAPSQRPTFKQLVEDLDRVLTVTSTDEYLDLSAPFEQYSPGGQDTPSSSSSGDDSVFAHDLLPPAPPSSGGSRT

[4] = molecular target: T2, off-target kinases (Homo sapiens, UniProt Q96BR1); conditions: SGKL (SGK3), ZLYTE, ATP Km app
T2 sequence (Q96BR1 1-496): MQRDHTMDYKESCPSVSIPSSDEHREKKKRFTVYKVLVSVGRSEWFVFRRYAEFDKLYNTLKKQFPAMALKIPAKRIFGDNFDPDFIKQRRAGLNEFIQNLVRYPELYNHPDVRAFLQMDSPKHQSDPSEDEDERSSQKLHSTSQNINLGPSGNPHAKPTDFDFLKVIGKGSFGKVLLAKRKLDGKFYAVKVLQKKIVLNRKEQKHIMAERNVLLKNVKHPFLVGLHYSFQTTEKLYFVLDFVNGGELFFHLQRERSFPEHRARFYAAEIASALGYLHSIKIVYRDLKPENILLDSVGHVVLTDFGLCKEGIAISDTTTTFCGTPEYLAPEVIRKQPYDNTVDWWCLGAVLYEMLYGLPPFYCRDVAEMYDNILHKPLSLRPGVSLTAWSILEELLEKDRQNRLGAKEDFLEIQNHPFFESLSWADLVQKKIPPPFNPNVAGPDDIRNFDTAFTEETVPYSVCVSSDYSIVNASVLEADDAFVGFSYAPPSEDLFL

[5] = molecular target: off-target kinases (Homo sapiens, UniProt Q9Y6E0); conditions: STK24 (MST3), ZLYTE, ATP Km app
Chain of off-target kinases (Homo sapiens, UniProt Q9Y6E0) (Q9Y6E0 whole entry): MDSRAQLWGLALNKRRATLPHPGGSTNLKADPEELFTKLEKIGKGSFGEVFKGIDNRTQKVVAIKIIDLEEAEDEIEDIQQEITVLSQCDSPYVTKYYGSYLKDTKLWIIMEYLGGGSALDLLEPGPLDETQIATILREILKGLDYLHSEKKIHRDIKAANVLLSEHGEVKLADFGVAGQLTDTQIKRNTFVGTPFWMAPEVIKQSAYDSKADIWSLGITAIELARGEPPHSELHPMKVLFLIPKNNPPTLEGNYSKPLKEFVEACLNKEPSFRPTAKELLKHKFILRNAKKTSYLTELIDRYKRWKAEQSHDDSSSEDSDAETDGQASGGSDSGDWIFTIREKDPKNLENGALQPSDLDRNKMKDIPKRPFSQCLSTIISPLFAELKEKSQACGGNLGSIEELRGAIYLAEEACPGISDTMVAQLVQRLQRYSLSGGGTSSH

## N#Cc1cc(-c2ncnc(Nc3ccc(N4CCN(C5COC5)CC4)cc3)n2)ccc1OC1CCOCC1 [Compound 1, 5-(4-((4-(4-(oxetan-3-yl)piperazin-1-yl)phenyl)amino)-1,3,5-triazin-2-yl)-2-((tetrahydro-2H-pyran-4-yl)oxy)benzonitrile]
[1]; read-out: % Inhibition 1
  inhibition: 6%
[1]; read-out: % Inhibition 2
  inhibition: 3%
[1]; read-out: % Inhibition Avg
  inhibition: 4%
[2]; read-out: % Inhibition 1
  inhibition: 5%
[2]; read-out: % Inhibition 2
  inhibition: 7%
[2]; read-out: % Inhibition Avg
  inhibition: 6%
[3]; read-out: % Inhibition 1
  inhibition: 13%
[3]; read-out: % Inhibition 2
  inhibition: 4%
[3]; read-out: % Inhibition Avg
  inhibition: 8%
[4]; read-out: % Inhibition 1
  inhibition: 3%
[4]; read-out: % Inhibition 2
  inhibition: 4%
[4]; read-out: % Inhibition Avg
  inhibition: 3%
[5]; read-out: % Inhibition 1
  inhibition: -5%
[5]; read-out: % Inhibition 2
  inhibition: 8%
[5]; read-out: % Inhibition Avg
  inhibition: 1%
